According to patent publication US4001419A, “1'-Substituted xanthene-9-spiro-4'-piperidine derivatives” (Imperial Chemical Industries Limited, priority 1974, dated 1977):

Test: LD50 (acute toxicity)
Parameters: species or system mice
Settings: mouse, in vivo; intravenous; read-out: LD50 when dosed intravenously
Procedure: All the compounds exemplified in this specification are active on at least one of these standard tests at a dose of equal to or less than 100 mg./kg. of the free base. […] Other LD50 values for compounds of the invention when dosed intravenously are as follows: […]
CC(=O)Oc1cccc2c1Oc1cc(Cl)ccc1C21CCN(C)CC1 [4-OAc H 6-Cl H] gave an LD50 greater than 35 mg/kg.
COc1ccc2c(c1)Oc1c(OC(C)=O)cccc1C21CCN(C)CC1 [4-OAc H 6-OMe H] gave an LD50 greater than 20 mg/kg.
In the case of CSc1ccc2c(c1)Oc1c(OC(C)=O)cccc1C21CCN(C)CC1 [4-OAc H 6-SMe H], the LD50 is reported as greater than 40 mg/kg.
Work on CN1CCC2(CC1)c1cccc(O)c1Oc1cccc(F)c12 [4-OH H 8-F H] yielded an LD50 greater than 20 mg/kg.
CN1CCC2(CC1)c1ccc(Cl)cc1Oc1c(O)cccc12 [6-chloro-4-hydroxy-1'-methylxanthene-9-spiro-4'-piperidine] showed an LD50 greater than 25 mg/kg.

Same assay, conditions: mouse, in vivo; mice, oral; read-out: oral LD50
With CN1CCC2(CC1)c1ccc(Cl)cc1Oc1c(O)cccc12 [6-chloro-4-hydroxy-1'-methylxanthene-9-spiro-4'-piperidine] the LD50 was greater than 200 mg/kg.
